Test results as given in US5373089A, “Oxytocin antagonist” (Northwestern University, priority 1993, dated 1994).
Starred links: 1 amine or outer side, 2 acyl side, 3 side chain; linkers in the order of their positions; H or OH if unused. Positions of bridges follow the written chain, without caps; N, C: chain ends. Non-standard residues stand in square brackets, D forms with d. Residues, ends and D or L forms follow the SMILES beside them. X1 = O=C(CC1(S[*:2])CCCCC1)[*:1]

Key:
[1] = target: T1, HUMAN OXYTOCIN RECEPTOR (Homo sapiens, UniProt P30559); test: Oxytocin receptor assay, human myometrial tissue membranes, 3H-OT competition; type: binding
T1 construct: Oxytocin receptors (OTrs) reside on the cell membrane and are present at high concentrations at the end of pregnancy in uterine tissue; from tissue; host or cells: human myometrium from cesarean section patients, sucrose-gradient membrane fraction
T1 sequence (P30559 1-389): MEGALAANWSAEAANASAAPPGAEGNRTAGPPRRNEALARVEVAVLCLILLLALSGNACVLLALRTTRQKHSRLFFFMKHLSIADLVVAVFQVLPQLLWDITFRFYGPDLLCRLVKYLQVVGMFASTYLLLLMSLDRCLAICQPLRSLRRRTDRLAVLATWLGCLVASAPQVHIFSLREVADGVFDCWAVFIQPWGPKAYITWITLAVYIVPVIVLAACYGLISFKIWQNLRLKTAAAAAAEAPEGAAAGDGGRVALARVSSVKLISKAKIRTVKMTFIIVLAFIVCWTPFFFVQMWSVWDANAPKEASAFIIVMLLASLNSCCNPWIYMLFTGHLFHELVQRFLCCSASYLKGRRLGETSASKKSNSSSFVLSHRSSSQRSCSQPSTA
Experimental: Human myometrial tissue was collected from patients at the time of cesarian section after informed consent. The tissue was rinsed in cold buffer, cut into small pieces and frozen at -70° C. until homogenization.
(§1) Oxytocin receptors (OTrs) reside on the cell membrane and are present at high concentrations at the end of pregnancy in uterine tissue. Frozen tissue is homogenized in Tris buffer, the homogenate filtered, and the filtrate centrifuged at 1000 g for 15 minutes at 4° C. The supernatant is centrifuged at 40,000 g for 30 minutes and the pellet containing the cell membranes resuspended in 10% sucrose. Density gradient ultracentrifugation is then performed by placing the 10 % sucrose suspension on top of 35% sucrose and centrifuging for 30 minutes in a swing bucket rotor at 105,000 g. The membranes at the interface of the 10%/35% sucrose are removed and resuspended in Tris buffer containing EDTA for 30 minutes. This procedure removes divalent cation and results in dissociation of any endogenously bound OT to the receptor. This mixture is then centrifuged for 15 minutes at 100,000 g and the pellet containing the membrane OTrs resuspended in Tris, PMSF, Mg^++, buffer by sonication.
(§2) The binding assay consist of 0.1 ml of 20,000 cmp of tritium labeled OT (New England Nuclear, […]), 0.1 ml of OT antagonist added at increasing concentration, 0.25 ml of buffer and 0.05 ml of membrane (70-150 ug protein). A nonspecific tube has 100× of cold OTA added to it. The incubation is for 30 minutes at 30 ° C. The membrane is pelleted by centrifugation in ultraclear mini tubes (5×41 mm) for 30 minutes at 105,000 g. The resulting pellet containing the bound ^3 H-OT is dissolved in 0.1N NaOH at 45 ° C. for 30 minutes and this mixture is then placed in liquid scintillation counting fluid and counted for dpms in a scintillation counter.
(§3) The data is analyzed by nonlinear curve fitting methods using McPherson's EBDA (J Pharmacol Methods 14:213-228, 1985) and Munson and Rodbard's LIGAND (Anal Biochem 107:220-239, 1980) program for saturation and competition analysis for determining Kds and Kis.

[2] = target: T2, RAT OXYTOCIN RECEPTOR (Rattus norvegicus, UniProt P70536); test: Oxytocin receptor assay, pregnant rat uterus (P21) membranes, 3H-OT competition; type: binding
T2 construct: from tissue; host or cells: uterus of day-21 pregnant Holtzman rats, sucrose-gradient membrane fraction
T2 sequence (P70536 1-388): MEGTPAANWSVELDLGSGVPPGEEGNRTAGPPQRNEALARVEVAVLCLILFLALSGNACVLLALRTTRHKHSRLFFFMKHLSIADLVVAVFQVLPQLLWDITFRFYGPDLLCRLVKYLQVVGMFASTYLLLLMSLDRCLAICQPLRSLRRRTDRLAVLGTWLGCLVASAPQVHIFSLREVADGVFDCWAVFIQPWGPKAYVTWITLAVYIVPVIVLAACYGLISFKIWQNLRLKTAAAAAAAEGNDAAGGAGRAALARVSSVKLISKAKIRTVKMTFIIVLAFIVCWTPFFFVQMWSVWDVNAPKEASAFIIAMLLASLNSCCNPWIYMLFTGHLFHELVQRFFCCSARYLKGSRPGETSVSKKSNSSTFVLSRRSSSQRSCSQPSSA
Experimental: Uterine tissue was removed on day 21 of pregnancy (delivery=Days 211/2 to 221/2) from Holtzman rats. The tissue was emptied of its contents, rinsed in ice cold buffer, cut into small pieces and frozen at -70° C. until homogenization.
as §1, §2, §3

[3] = tested on: pregnant baboon; test: Oxytocin challenge test in tethered pregnant baboon (antagonists-response interval); type: in vivo; conditions: for ARI (OTA/ANTI): ratio to ANTAG I
Experimental: The baboon is an excellent animal model because of its physiologic and anatomic similarity to humans (see articles by our laboratory: Am J Obstet Gynecol. 163:1815-1882, 1990; Am J Obstet Gynecol 165:456-560, 1991; Am J Obstet Gynecol 165:1487-1498, 1991; articles by other laboratories: Endocrine Reviews 11:124-150, 1990; 11:151-176, 1990). Pregnant tethered baboons were studied between 130 to 145 days of pregnancy Delivery=day 184). The oxytocin antagonists were administered as a single bolus injection of 1 mg intra-arterially followed 1 minute later by the infusion of oxytocin. […] This oxytocin antagonist was not produced in our laboratory and is not an oxytocin analog.

Row | RECEPTOR ASSAY Ka ([2]; pregnant rat uterus (P21), Table 3) | rOTr (OTA/ANTI) ([2]; ratio of binding affinity to ANTAG I, rat oxytocin receptor) | Molecule | Kd [1] [nM] | Kd [2] [nM] | ARI (antagonists-response interval) ([3]; 1 mg single bolus intra-arterially, then oxytocin infusion, pregnant baboon day 130-145) | time for which the response to oxytocin was blocked ([3]; one mg, pregnant baboon) | ARI (OTA/ANTI) [3] | ARI (OTA/ANTI) ([3]; listed as ANTAG III) | ARI (OTA/ANTI) ([3]; listed as compound D)
1 |  |  | CC[C@H](C)[C@@H]1NC(=O)[C@H](Cc2ccccc2)NC(=O)[C@@H](Cc2c[nH]c3ccccc23)NC(=O)CC2(CCCCC2)SSC[C@@H](C(=O)N2CCC[C@H]2C(=O)N[C@@H](CCCNC(=N)N)C(=O)NCC(N)=O)NC(=O)[C@H](CC(N)=O)NC1=O [Compound B, [Pmp^1,D-Trp^2,Phe^3,Ile^4,Arg^8] oxytocin] ([dW]FINCPRG-NH2; linker N-5 via X1) | 19.6 | 8.62 |  |  |  |  | 
2 | 24.40 10^+8 M^-1 | 20.0 | [(S)Pmp^1,D-Trp^2,Pen^6,Arg^8 ] oxytocin [Compound D] |  |  | 7856 | greater than 24 hours | 133 | 133 | about 130
